Experimental data taken from ChEMBL document CHEMBL1145105, “Synthesis and benzodiazepine receptor affinity of pyrazolo[1,5-a]pyrimidine derivatives. 3. New 6-(3-thienyl) series as alpha 1 selective ligands” (J Med Chem, 2003).
Several values for one entry are separate records, joined by “and”; a condition that tells them apart may be missing. Equal entries are not always repeated.

Columns and labels:
[1] = target: T1, GABA-A receptor; anion channel (Bos taurus) (UniProt P10063+P08220+P20237+P08219+P10064+P22300); test: Percent inhibition of [3H]Ro-151788 binding to bovine brain GABA-A central benzodiazepine receptor at 0.2 nM
[2] = target: GABA-A receptor; anion channel; test: Inhibition of [3H]Ro-151788 binding to GABA-A central benzodiazepine receptor of bovine brain membranes; assay type: cell membranes, Bos taurus
[3] = target: GABA-A receptor; alpha-1/beta-2/gamma-2 (Rattus norvegicus, UniProt P18508+P62813+P63138); test: Binding affinity for recombinant rat GABA-A receptor alpha-1-beta-2-gamma-2 subunits expressed in HEK293 cells; assay type: cell-based
Sequence of GABA-A receptor; alpha-1/beta-2/gamma-2 (P18508 whole entry): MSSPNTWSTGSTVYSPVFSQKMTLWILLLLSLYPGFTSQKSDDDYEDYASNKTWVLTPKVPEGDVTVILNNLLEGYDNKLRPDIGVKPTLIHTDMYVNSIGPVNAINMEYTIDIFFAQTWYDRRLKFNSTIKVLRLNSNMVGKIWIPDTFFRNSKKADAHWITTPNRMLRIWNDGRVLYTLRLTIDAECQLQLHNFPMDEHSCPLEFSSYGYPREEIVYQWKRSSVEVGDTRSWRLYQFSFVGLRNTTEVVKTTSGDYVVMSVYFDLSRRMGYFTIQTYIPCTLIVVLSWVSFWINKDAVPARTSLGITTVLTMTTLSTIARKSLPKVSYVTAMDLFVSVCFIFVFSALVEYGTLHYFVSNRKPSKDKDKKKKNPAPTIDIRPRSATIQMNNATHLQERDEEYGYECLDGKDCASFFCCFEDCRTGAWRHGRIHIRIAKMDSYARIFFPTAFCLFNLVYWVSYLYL
Sequence of GABA-A receptor; alpha-1/beta-2/gamma-2 (P62813 whole entry): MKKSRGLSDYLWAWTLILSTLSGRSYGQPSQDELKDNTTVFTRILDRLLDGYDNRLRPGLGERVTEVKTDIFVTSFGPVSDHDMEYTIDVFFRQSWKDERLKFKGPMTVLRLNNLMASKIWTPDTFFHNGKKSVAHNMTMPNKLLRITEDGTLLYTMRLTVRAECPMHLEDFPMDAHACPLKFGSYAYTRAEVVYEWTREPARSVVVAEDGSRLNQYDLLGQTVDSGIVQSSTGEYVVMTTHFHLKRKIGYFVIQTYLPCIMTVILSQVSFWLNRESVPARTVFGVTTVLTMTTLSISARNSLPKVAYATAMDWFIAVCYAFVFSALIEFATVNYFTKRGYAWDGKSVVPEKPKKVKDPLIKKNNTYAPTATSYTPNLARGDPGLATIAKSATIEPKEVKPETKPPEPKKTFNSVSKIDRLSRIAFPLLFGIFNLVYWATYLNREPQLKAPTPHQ
Sequence of GABA-A receptor; alpha-1/beta-2/gamma-2 (P63138 whole entry): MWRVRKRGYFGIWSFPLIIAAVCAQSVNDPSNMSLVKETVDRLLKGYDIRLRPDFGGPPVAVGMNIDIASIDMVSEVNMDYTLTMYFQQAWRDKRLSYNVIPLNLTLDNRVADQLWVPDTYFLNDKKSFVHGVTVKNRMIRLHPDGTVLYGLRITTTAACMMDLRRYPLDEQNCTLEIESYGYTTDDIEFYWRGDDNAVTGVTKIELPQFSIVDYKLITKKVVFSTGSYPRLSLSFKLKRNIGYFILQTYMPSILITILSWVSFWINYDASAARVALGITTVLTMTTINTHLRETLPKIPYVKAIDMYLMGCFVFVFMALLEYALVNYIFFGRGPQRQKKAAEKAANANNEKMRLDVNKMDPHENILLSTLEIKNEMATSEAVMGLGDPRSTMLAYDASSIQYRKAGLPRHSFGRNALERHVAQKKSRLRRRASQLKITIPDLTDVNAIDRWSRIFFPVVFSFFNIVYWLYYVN

[4] = target: T2, GABA A receptor alpha-2/beta-2/gamma-2 (Rattus norvegicus, UniProt P18508+P23576+P63138); test: Binding affinity for recombinant rat GABA-A receptor alpha-2-beta-2-gamma-2 subunits expressed in HEK293 cells; assay type: cell-based
T2 sequence (P18508 whole entry): as the sequence (P18508 whole entry) above
T2 sequence (P23576 whole entry): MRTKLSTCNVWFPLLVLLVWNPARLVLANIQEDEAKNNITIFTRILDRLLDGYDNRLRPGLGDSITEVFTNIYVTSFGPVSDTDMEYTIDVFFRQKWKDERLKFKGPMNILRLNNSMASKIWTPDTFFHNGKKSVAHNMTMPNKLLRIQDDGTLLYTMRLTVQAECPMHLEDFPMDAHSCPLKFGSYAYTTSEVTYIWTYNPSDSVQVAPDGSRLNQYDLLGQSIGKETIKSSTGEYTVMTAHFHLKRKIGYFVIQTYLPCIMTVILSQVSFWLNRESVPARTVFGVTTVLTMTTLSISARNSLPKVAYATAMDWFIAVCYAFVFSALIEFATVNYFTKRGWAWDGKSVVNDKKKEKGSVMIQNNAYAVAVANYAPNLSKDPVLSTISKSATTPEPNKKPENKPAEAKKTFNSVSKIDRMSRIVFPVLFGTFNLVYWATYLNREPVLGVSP
T2 sequence (P63138 whole entry): as the sequence (P63138 whole entry) above

[5] = target: GABA A receptor alpha-5/beta-3/gamma-2 (Rattus norvegicus, UniProt P18508+P19969+P63079); test: Binding affinity for recombinant rat GABA-A receptor alpha-5-beta-3-gamma-2 subunits expressed in HEK 293 cells; assay type: cell-based, HEK293
Sequence of GABA A receptor alpha-5/beta-3/gamma-2 (P18508 whole entry): as the sequence (P18508 whole entry) above
Sequence of GABA A receptor alpha-5/beta-3/gamma-2 (P19969 whole entry): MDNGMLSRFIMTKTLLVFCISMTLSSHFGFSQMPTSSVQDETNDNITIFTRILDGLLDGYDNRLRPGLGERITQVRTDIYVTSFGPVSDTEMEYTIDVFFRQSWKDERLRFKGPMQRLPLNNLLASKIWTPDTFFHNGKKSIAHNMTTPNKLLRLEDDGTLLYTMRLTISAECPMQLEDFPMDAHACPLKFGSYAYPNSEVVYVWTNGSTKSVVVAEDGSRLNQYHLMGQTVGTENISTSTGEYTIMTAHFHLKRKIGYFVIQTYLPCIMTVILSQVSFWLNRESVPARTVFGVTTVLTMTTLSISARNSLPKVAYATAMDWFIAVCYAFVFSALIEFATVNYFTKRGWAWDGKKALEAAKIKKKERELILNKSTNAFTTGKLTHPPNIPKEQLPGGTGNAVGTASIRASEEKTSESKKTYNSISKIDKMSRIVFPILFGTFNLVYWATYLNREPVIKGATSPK
Sequence of GABA A receptor alpha-5/beta-3/gamma-2 (P63079 whole entry): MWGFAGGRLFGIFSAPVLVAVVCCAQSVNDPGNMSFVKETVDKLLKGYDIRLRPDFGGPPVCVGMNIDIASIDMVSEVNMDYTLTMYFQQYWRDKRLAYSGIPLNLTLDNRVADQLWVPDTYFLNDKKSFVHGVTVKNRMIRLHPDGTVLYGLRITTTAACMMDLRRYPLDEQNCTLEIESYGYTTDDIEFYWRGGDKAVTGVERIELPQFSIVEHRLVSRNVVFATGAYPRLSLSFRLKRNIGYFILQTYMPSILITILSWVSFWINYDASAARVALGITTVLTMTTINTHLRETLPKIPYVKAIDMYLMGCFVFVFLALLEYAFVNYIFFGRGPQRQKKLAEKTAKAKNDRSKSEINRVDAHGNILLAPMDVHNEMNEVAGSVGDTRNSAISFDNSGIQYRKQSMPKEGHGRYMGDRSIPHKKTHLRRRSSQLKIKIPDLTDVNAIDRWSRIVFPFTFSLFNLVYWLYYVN

Mus musculus [6] = test: Percent anticonvulsant activity against PTZ induced attack in mice at dose of 10 mg/kg; assay type: functional
Mus musculus [7] = test: Percent anticonvulsant activity against PTZ induced attack in mice at dose of 30 mg/kg; assay type: functional
Mus musculus [8] = test: Synergic sedative effect was tested in mice using the Hole Board test at peroral dose of 10 mg/kg, value was expressed in holes; assay type: functional; details: route oral
Mus musculus [9] = test: Synergic sedative effect was tested in mice using the Hole Board test at peroral dose of 10 mg/kg, value was expressed in plane; assay type: functional; details: route oral
Mus musculus [10] = test: Synergic sedative effect was tested in mice using the Hole Board test at peroral dose of 30 mg/kg, value was expressed in holes; assay type: functional; details: route oral
Mus musculus [11] = test: Synergic sedative effect was tested in mice using the Hole Board test at peroral dose of 30 mg/kg, value was expressed in plane; assay type: functional; details: route oral
Mus musculus [12] = test: Antianxiety activity was tested in mice at dose of 10 mg/kg using light/dark box test; assay type: functional
Mus musculus [13] = test: Muscle relaxant effect in mice at dose of 10 mg/kg using rotarod test, value was expressed as no. of falls in 30 seconds; assay type: functional
Mus musculus [14] = test: Muscle relaxant effect in mice at dose of 30 mg/kg using rotarod test, value was expressed as no. of falls in 30 seconds; assay type: functional
Mus musculus [15] = test: Antianxiety activity was tested in mice at dose of 10 mg/kg in light; assay type: functional
[16] = target: T1, GABA-A receptor; anion channel (Bos taurus); test: Relative binding to GABA-A receptor in the presence and absence of GABA (GABA shift), Ki(-GABA)/Ki(+GABA); assay type: protein-complex assay
[17] = target: GABA A receptor alpha-3/beta-2/gamma-2 (Rattus norvegicus, UniProt P18508+P20236+P63138); test: Binding affinity for recombinant rat GABA-A receptor alpha-3-beta-2-gamma-2 subunits expressed in HEK293 cells; assay type: cell-based
Sequence of GABA A receptor alpha-3/beta-2/gamma-2 (P18508 whole entry): as the sequence (P18508 whole entry) above
Sequence of GABA A receptor alpha-3/beta-2/gamma-2 (P20236 whole entry): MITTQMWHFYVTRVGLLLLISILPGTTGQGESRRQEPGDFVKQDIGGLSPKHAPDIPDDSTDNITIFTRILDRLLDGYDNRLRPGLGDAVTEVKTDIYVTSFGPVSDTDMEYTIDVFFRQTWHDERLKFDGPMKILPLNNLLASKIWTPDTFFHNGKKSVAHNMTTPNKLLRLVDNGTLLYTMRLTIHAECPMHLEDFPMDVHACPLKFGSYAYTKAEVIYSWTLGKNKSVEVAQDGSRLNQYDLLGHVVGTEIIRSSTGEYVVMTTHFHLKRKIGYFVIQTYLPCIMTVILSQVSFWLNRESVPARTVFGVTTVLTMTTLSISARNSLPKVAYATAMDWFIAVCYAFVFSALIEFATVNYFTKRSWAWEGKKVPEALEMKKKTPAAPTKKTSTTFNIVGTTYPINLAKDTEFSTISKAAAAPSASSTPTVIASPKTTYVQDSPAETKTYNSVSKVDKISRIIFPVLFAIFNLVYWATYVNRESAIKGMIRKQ
Sequence of GABA A receptor alpha-3/beta-2/gamma-2 (P63138 whole entry): as the sequence (P63138 whole entry) above

Mus musculus [18] = test: Antianxiety activity was tested in mice at peroral dose of 0.3 mg/kg using light/dark box test; assay type: functional; details: route oral
Mus musculus [19] = test: Antianxiety activity was tested in mice at peroral dose of 1 mg/kg using light/dark box test; assay type: functional; details: route oral
Mus musculus [20] = test: Muscle relaxant effect in mice at peroral dose of 0.3 mg/kg using rotarod test, value was expressed as no. of falls in 30 seconds; assay type: functional; details: route oral
Mus musculus [21] = test: Muscle relaxant effect in mice at peroral dose of 1 mg/kg using rotarod test, value was expressed as no. of falls in 30 seconds; assay type: functional; details: route oral
Mus musculus [22] = test: Antianxiety activity was tested in mice at peroral dose of 0.3 mg/kg in light; assay type: functional; details: route oral
Mus musculus [23] = test: Antianxiety activity was tested in mice at peroral dose of 1 mg/kg in light; assay type: functional; details: route oral
Mus musculus [24] = test: Antianxiety activity was tested in mice at dose of 30 mg/kg using light/dark box test; assay type: functional
Mus musculus [25] = test: Antianxiety activity was tested in mice at dose of 30 mg/kg in light; assay type: functional
[26] = target: T2, GABA A receptor alpha-2/beta-2/gamma-2; test: Binding affinity for recombinant rat alpha-2-beta-2-gamma-2 GABA-A receptor subunits expressed in HEK293 cells; assay type: cell-based
Mus musculus [27] = test: Percent anticonvulsant activity against PTZ induced attack in mice at dose of 3 mg/kg; assay type: functional
Mus musculus [28] = test: Synergic sedative effect was tested in mice using the Hole Board test at peroral dose of 3 mg/kg, value was expressed in holes; assay type: functional; details: route oral
Mus musculus [29] = test: Synergic sedative effect was tested in mice using the Hole Board test at peroral dose of 3 mg/kg, value was expressed in plane; assay type: functional; details: route oral
Mus musculus [30] = test: Muscle relaxant effect in mice at dose of 3 mg/kg using rotarod test, value was expressed as no. of falls in 30 seconds; assay type: functional

Row | Compound | inhibition [1] [%] | Ki [2] [µM] | Ki [3] [µM] | Ki [4] [µM] | Ki [5] [µM] | Activity (Mus musculus [6]) [%] | No. of falls (Mus musculus [13]) | Ratio [16] | further results
1 | Oc1c(-c2ccsc2)cnc2c(-c3ccccn3)cnn12 | 98 | 0.0039 | 0.007 | 0.927 | 0.74 | 19 | 0.3 | 1.1 | Activity (Mus musculus [7]): 10%; No. of counts (Mus musculus [8]): 55.9; No. of counts (Mus musculus [9]): 96.6; No. of counts (Mus musculus [10]): 50.9; No. of counts (Mus musculus [11]): 110.4; No. of crosses (Mus musculus [12]): 19.6; No. of falls (Mus musculus [14]): 0.3; Time (Mus musculus [15]): 90.6 s
2 | Oc1c(-c2ccsc2)cnc2c(-c3cccc(Br)c3)cnn12 | 87 | 0.0088 | 0.01 | 0.291 | 0.022 |  |  | 1.72 | Ki [17]: 0.111 µM
3 | CN1C(=O)CN=C(c2ccccc2)c2cc(Cl)ccc21 [DIAZEPAM] |  |  |  |  |  |  |  |  | No. of crosses (Mus musculus [18]): 22; No. of crosses (Mus musculus [19]): 21.5; No. of falls (Mus musculus [20]): 0.5; No. of falls (Mus musculus [21]): 0.7; Time (Mus musculus [22]): 85 s; Time (Mus musculus [23]): 117.5 s
4 | Oc1c(-c2ccsc2)cnc2c(-c3ccc4ccccc4c3)cnn12 | 30 |  |  |  |  |  |  |  | 
5 | CN1C(=O)CN=C(c2ccccc2)c2cc(Cl)ccc21.Oc1c(-c2ccsc2)cnc2c(-c3ccccn3)cnn12 |  |  |  |  |  | 90 | 0.5 |  | No. of counts (Mus musculus [8]): 25.8; No. of counts (Mus musculus [9]): 68; No. of crosses (Mus musculus [12]): 26.2; Time (Mus musculus [15]): 120.9 s
6 | Oc1c(-c2ccsc2)cnc2c(-c3cccc(F)c3)cnn12 | 92 | 0.073 |  |  |  |  |  | 1.2 | 
7 | Oc1c(-c2ccsc2)cnc2c(-c3ccsc3)cnn12 | 100 | 0.016 | 0.023 | 0.2 | 0.223 | 36.4 | 0 | 1.3 | Ki [17]: 0.196 µM; Activity (Mus musculus [7]): 9.1%; No. of counts (Mus musculus [8]): 52.7; No. of counts (Mus musculus [9]): 12.2; No. of crosses (Mus musculus [12]): 19.7; No. of crosses (Mus musculus [24]): 11.8; No. of falls (Mus musculus [14]): 0.3; Time (Mus musculus [15]): 94.9 s; Time (Mus musculus [25]): 72.3 s
8 | Oc1c(-c2ccsc2)cnc2c(-c3cccc(C(F)(F)F)c3)cnn12 | 96 | 0.0058 | 0.01 | 0.54 | 0.207 | 29.4 | 0.1 | 2 | Ki [17]: 0.089 µM; Activity (Mus musculus [7]): 0%; No. of counts (Mus musculus [8]): 60.7; No. of counts (Mus musculus [9]): 139.6; No. of crosses (Mus musculus [12]): 17.1; No. of crosses (Mus musculus [24]): 12.7; No. of falls (Mus musculus [14]): 0.2; Time (Mus musculus [15]): 69.4 s; Time (Mus musculus [25]): 77.3 s
9 | Oc1c(-c2ccsc2)cnc2c(Cc3ccccc3)cnn12 | 55 |  |  |  |  |  |  |  | 
10 | Oc1c(-c2ccsc2)cnc2c(-c3cccc4ccccc34)cnn12 | 92 | 0.04 | 0.047 | > 10 | 0.156 |  |  | 1.02 | 
11 | Oc1c(-c2ccsc2)cnc2c(-c3cccnc3)cnn12 | 100 | 0.03 | 0.025 | 0.315 | 0.21 |  |  | 1.51 | 
12 | Oc1c(-c2ccsc2)cnc2c(-c3ccc(F)cc3)cnn12 | 99 | 0.031 |  |  |  |  |  | 0.9 | 
13 | Cc1ccc(-c2nc3ccc(C)cn3c2CC(=O)N(C)C)cc1.Oc1c(-c2ccsc2)cnc2c(-c3ccccn3)cnn12 |  |  |  |  |  | 90 | 1.1 |  | No. of counts (Mus musculus [8]; 10 mg/kg): 25.8 and 9.38; No. of counts (Mus musculus [9]; 10 mg/kg): 68 and 28.7
14 | Oc1c(-c2ccsc2)cnc2c(-c3ccccc3)cnn12 | 94 | 0.111 |  |  |  |  |  | 1.71 | 
15 | Cc1cccc(-c2cnn3c(O)c(-c4ccsc4)cnc23)c1 | 97 | 0.026 |  |  |  |  |  | 2 | 
16 | COc1cccc(-c2cnn3c(O)c(-c4ccsc4)cnc23)c1 | 92 | 0.0422 | 0.043 |  | 0.737 |  |  | 1.25 | Ki [26]: 0.827 µM
17 | Cc1ccc(-c2nc3ccc(C)cn3c2CC(=O)N(C)C)cc1 [ZOLPIDEM] |  |  |  |  |  | 90 | 0.8 |  | Activity (Mus musculus [27]): 70%; No. of counts (Mus musculus [8]): 26.3; No. of counts (Mus musculus [9]): 54.4; No. of counts (Mus musculus [28]): 45; No. of counts (Mus musculus [29]): 84.7; No. of falls (Mus musculus [30]): 0.2
